We go through one compound from paper PMC6718478, “A Comprehensive Antimicrobial Activity Evaluation of the Recombinant Microcin J25 Against the Foodborne Pathogens Salmonella and E. coli O157:H7 by Using a Matrix of Conditions” (Frontiers in Microbiology, 2019).

Positions of bridges follow the written chain, without caps; N, C: chain ends. Residues, ends and D or L forms follow the SMILES beside them.

Data set [1] relates to S. Pullorum. As to the kind of experiment: Antimicrobial activity after treatment with simulated intestinal fluid (SIF). The settings on record: simulated intestinal fluid, 2, 4, and 6 h; 1 × MIC; inhibition zone; three replicate experiments. The format is in vitro ADME, Salmonella Pullorum. As for the experimental part:
(§1) Biological fluids (SGF; SIF) and serum were prepared as described previously ([Liu et al., 2013]; [Xia et al., 2015]). Then, assays of the antibacterial activity of recombinant MccJ25 in SGF, SIF and serum were performed. S. Pullorum was grown in Mueller-Hinton broth (MHB, Difco Laboratories, Detroit, MI, United States). One milliliter of bacterial inoculum was transferred into 9 mL of each medium with the recombinant MccJ25 and into corresponding control medium without the recombinant MccJ25. LB agar inoculated with the indicator bacteria S. Pullorum (approximately 10^5 viable cells per mL) was poured over plates fitted with Oxford cups to make wells. Hundred and fifty μL of a 1 × MIC final concentration of recombinant MccJ25 samples that had previously been treated with SGF, SIF and serum for 2, 4, and 6 h, respectively, were added to the wells. The agar overlays were incubated overnight at 37°C, and the inhibition zones were recorded.

The test system of a further data set is pepsin. As to the kind of experiment: Resistance to a single protease, inhibition zone read-out. The settings on record: pepsin for 2 and 4 h; 1 × MIC; inhibition zone against S. Pullorum; three replicate experiments. It counts as in vitro ADME. As for the experimental part:
(§2) The resistance of recombinant MccJ25 to pepsin, trypsin and chymotrypsin was evaluated as described previously ([Chen et al., 2009]; [Meng et al., 2019]) with slight modification. The indicator Salmonella was prepared (approximately 1 × 10^7 CFU/mL), and 1 mL of bacterial inoculum was transferred into 9 mL of each medium with the recombinant MccJ25 and into corresponding control media without the recombinant MccJ25. LB agar inoculated with the indicator bacteria S. Pullorum (approximately 10^5 viable cells per mL) was poured over plates that had been fitted with Oxford cups to make wells. Then, 150 μL of a 1 × MIC final concentration of recombinant MccJ25 that had been previously treated under various conditions for 2 and 4 h were added to the wells. The agar overlays were incubated overnight at 37°C, and the inhibition zones were recorded.

In another data set the test system is chymotrypsin. Described as above. It counts as in vitro ADME. The settings on record: chymotrypsin for 2 and 4 h; 1 × MIC; inhibition zone against S. Pullorum; three replicate experiments. The protocol:
as §2

Another data set has as its system trypsin. The data set is described as above. The format is in vitro ADME. Conditions: trypsin for 2 and 4 h; 1 × MIC; inhibition zone against S. Pullorum; three replicate experiments. As for the experimental part: as §2
Data set [2] concerns S. Pullorum. The data set can be described thus: Antimicrobial activity after treatment with simulated gastric fluid (SGF). It counts as in vitro ADME, Salmonella Pullorum. Conditions: simulated gastric fluid, 2, 4, and 6 h; 1 × MIC; inhibition zone; three replicate experiments. The protocol: as §1
For data set [3], the system named is S. Pullorum. The data set can be described thus: Antimicrobial activity after treatment with serum. It counts as in vitro ADME, Salmonella Pullorum. The settings on record: murine serum, 2, 4, and 6 h; 1 × MIC; inhibition zone; three replicate experiments. The protocol: as §1

Regarding `CC[C@H](C)[C@H](NC(=O)CNC(=O)[C@@H](NC(=O)[C@H](Cc1ccccc1)NC(=O)[C@H](Cc1ccc(O)cc1)NC(=O)[C@@H]1CCC(=O)NCC(=O)NCC(=O)N[C@@H](C)C(=O)NCC(=O)N[C@@H](Cc2cnc[nH]2)C(=O)N[C@@H](C(C)C)C(=O)N2CCC[C@H]2C(=O)N1)C(C)C)C(=O)NCC(=O)N[C@H](C(=O)N1CCC[C@H]1C(=O)N[C@H](C(=O)N[C@@H](CO)C(=O)N[C@@H](Cc1ccccc1)C(=O)N[C@@H](Cc1ccc(O)cc1)C(=O)NCC(=O)O)[C@@H](C)CC)[C@@H](C)O` [recombinant MccJ25, microcin J25] (GGAGHVPEYFVGIGTPISFYG-OH; lactam N-8), the “growth inhibition of S. Pullorum after incubation with SIF” value in the data set on S. Pullorum [1] is “still inhibited the growth of S. Pullorum in a manner similar to that of recombinant MccJ25 alone”. For the same compound, the “antimicrobial activity after protease challenge” value in the data set on pepsin, in the data set with chymotrypsin and in the data set with trypsin was “maintained its antimicrobial activity” throughout. The “growth inhibition of S. Pullorum after incubation with SGF” value with S. Pullorum [2] is listed as “still inhibited the growth of S. Pullorum in a manner similar to that of recombinant MccJ25 alone”. Further, in the data set with S. Pullorum [3], the “growth inhibition of S. Pullorum after incubation with serum” value is “still inhibited the growth of S. Pullorum in a manner similar to that of recombinant MccJ25 alone”.
